Measured values from patent US20260042731A1, “(2,4-DICHLOROPHENOXY)ACETIC ACID ANALOGS” (CORTEVA AGRISCIENCE LLC, priority 2022, published 2026).
Read-outs that look alike come from different tables or passages of the source.

Experiments:
Assay type in all cases: in vivo
[1] = test system: Chenopodium album (CHEAL), common lambsquarters; assay: Postemergence herbicide evaluation, growth of Chenopodium album (CHEAL); conditions: Chenopodium album, post-emergence, read-out: Ave. CHEAL, percent reduction in plant size relative to the untreated control; for pest or weed control at 280 g/ha: 280 g ae/ha; for pest or weed control at 560 g/ha: 560 g ae/ha
[2] = test system: glyphosate resistant Conyza canadensis (L.) (ERICA), horseweed; assay: Postemergence herbicide evaluation, growth of Conyza canadensis (ERICA); conditions: Erigeron canadensis, post-emergence, read-out: Ave. ERICA, percent reduction in plant size relative to the untreated control; for pest or weed control at 280 g/ha: 280 g ae/ha; for pest or weed control at 560 g/ha: 560 g ae/ha
[3] = test system: Amaranthus rudis (AMATA), tall water hemp; assay: Postemergence herbicide evaluation, growth of Amaranthus rudis (AMATA); conditions: Amaranthus tuberculatus, post-emergence, read-out: Ave. AMATA, percent reduction in plant size relative to the untreated control; for pest or weed control at 280 g/ha: 280 g ae/ha; for pest or weed control at 560 g/ha: 560 g ae/ha
[4] = test system: Abutilon theophrasti (ABUTH), velvetleaf; assay: Postemergence herbicide evaluation, growth of Abutilon theophrasti (ABUTH); conditions: Abutilon theophrasti, post-emergence, read-out: AVE. ABUTH, percent reduction in plant size relative to the untreated control; for pest or weed control at 280 g/ha: 280 g ae/ha; for pest or weed control at 560 g/ha: 560 g ae/ha
[5] = test system: Ambrosia artemisiifolia (AMBEL), common ragweed; assay: Postemergence herbicide evaluation, growth of Ambrosia artemisiifolia (AMBEL); conditions: Ambrosia artemisiifolia, post-emergence, read-out: AVE. AMBEL, percent reduction in plant size relative to the untreated control; for pest or weed control at 280 g/ha: 280 g ae/ha; for pest or weed control at 560 g/ha: 560 g ae/ha
[6] = test system: weeds ABUTH, AMATA, AMBEL, CHEAL, ERICA; assay: Postemergence herbicide evaluation, overall average % weed control (ABUTH, AMATA, AMBEL, CHEAL, ERICA); conditions: post-emergence, read-out: Overall Ave % Weed Control; for pest or weed control at 280 g/ha: 280 g ae/ha; for pest or weed control at 560 g/ha: 560 g ae/ha

Row | Structure (SMILES) | pest or weed control at 280 g/ha ([1]; 168 h, 7 DAA) | pest or weed control at 560 g/ha ([1]; 168 h, 7 DAA) | pest or weed control at 280 g/ha ([1]; 336 h, 14 DAA) | pest or weed control at 560 g/ha ([1]; 336 h, 14 DAA) | pest or weed control at 280 g/ha ([1]; 504 h, 21 DAA) | pest or weed control at 560 g/ha ([1]; 504 h, 21 DAA) | pest or weed control at 280 g/ha ([2]; 168 h, 7 DAA) | pest or weed control at 560 g/ha ([2]; 168 h, 7 DAA) | pest or weed control at 280 g/ha ([2]; 336 h, 14 DAA) | pest or weed control at 560 g/ha ([2]; 336 h, 14 DAA) | pest or weed control at 280 g/ha ([2]; 504 h, 21 DAA) | pest or weed control at 560 g/ha ([2]; 504 h, 21 DAA) | pest or weed control at 280 g/ha ([3]; 168 h, 7 DAA) | pest or weed control at 560 g/ha ([3]; 168 h, 7 DAA) | pest or weed control at 280 g/ha ([3]; 336 h, 14 DAA) | pest or weed control at 560 g/ha ([3]; 336 h, 14 DAA) | pest or weed control at 280 g/ha ([3]; 504 h, 21 DAA) | pest or weed control at 560 g/ha ([3]; 504 h, 21 DAA) | pest or weed control at 280 g/ha ([4]; 168 h, 7 DAA) | pest or weed control at 560 g/ha ([4]; 168 h, 7 DAA) | also measured
1 | O=C(COc1ccc(Cl)cc1Cl)Nc1c(Cl)c(F)nc(F)c1Cl [Compound D25] | 35% | 45% | 0% | 7.5% | 12.5% | 15% | 7.5% | 10% | 20% | 12.5% | 10% | 12.5% | 5% | 7.5% | 15% | 25% | 5% | 2.5% | 0% | 3.5% | pest or weed control at 280 g/ha ([4]; 336 h, 14 DAA): 0%; pest or weed control at 560 g/ha ([4]; 336 h, 14 DAA): 0%; pest or weed control at 280 g/ha ([4]; 504 h, 21 DAA): 0%; pest or weed control at 560 g/ha ([4]; 504 h, 21 DAA): 2.5%; pest or weed control at 280 g/ha ([5]; 168 h, 7 DAA): 35%; pest or weed control at 560 g/ha ([5]; 168 h, 7 DAA): 40%; pest or weed control at 280 g/ha ([5]; 336 h, 14 DAA): 15%; pest or weed control at 560 g/ha ([5]; 336 h, 14 DAA): 7.5%; pest or weed control at 280 g/ha ([5]; 504 h, 21 DAA): 10%; pest or weed control at 560 g/ha ([5]; 504 h, 21 DAA): 7.5%; pest or weed control at 280 g/ha ([6]; 168 h, 7 DAA): 16.5%; pest or weed control at 560 g/ha ([6]; 168 h, 7 DAA): 21.2%; pest or weed control at 280 g/ha ([6]; 336 h, 14 DAA): 10%; pest or weed control at 560 g/ha ([6]; 336 h, 14 DAA): 10.5%; pest or weed control at 280 g/ha ([6]; 504 h, 21 DAA): 7.5%; pest or weed control at 560 g/ha ([6]; 504 h, 21 DAA): 8%
2 | O=C(COc1ccc(Cl)cc1Cl)Oc1cccnn1 [Compound E2] | 65% | 75% | 63% | 88% | 63% | 94% | 70% | 73% | 88% | 85% | 94% | 90% | 78% | 73% | 80% | 83% | 83% | 84% | 85% | 85% | pest or weed control at 280 g/ha ([4]; 336 h, 14 DAA): 93%; pest or weed control at 560 g/ha ([4]; 336 h, 14 DAA): 93%; pest or weed control at 280 g/ha ([4]; 504 h, 21 DAA): 98%; pest or weed control at 560 g/ha ([4]; 504 h, 21 DAA): 98%; pest or weed control at 280 g/ha ([5]; 168 h, 7 DAA): 63%; pest or weed control at 560 g/ha ([5]; 168 h, 7 DAA): 63%; pest or weed control at 280 g/ha ([5]; 336 h, 14 DAA): 90%; pest or weed control at 560 g/ha ([5]; 336 h, 14 DAA): 95%; pest or weed control at 280 g/ha ([5]; 504 h, 21 DAA): 94%; pest or weed control at 560 g/ha ([5]; 504 h, 21 DAA): 99%; pest or weed control at 280 g/ha ([6]; 168 h, 7 DAA): 72%; pest or weed control at 560 g/ha ([6]; 168 h, 7 DAA): 74%; pest or weed control at 280 g/ha ([6]; 336 h, 14 DAA): 83%; pest or weed control at 560 g/ha ([6]; 336 h, 14 DAA): 89%; pest or weed control at 280 g/ha ([6]; 504 h, 21 DAA): 86%; pest or weed control at 560 g/ha ([6]; 504 h, 21 DAA): 93%
